The results in this text go back to patent US8497380B2, “Substituted acetophenones useful as PDE4 inhibitors” (Leo Pharma A/S, priority 2006, dated 2013).

A value given as a limit tells only on which side of the number the result lay.

For orientation: IC50 means the concentration that gives 50% inhibition.

This experiment deals with Human peripheral blood mononuclear cells (PBMC). Kind of experiment: TNFalfa-Release. Format: cell-based. Particulars: inhibition of TNF-a secretion, PBMC pre-incubated 30 minutes, stimulated 18 hours with lipopolysaccharide. The gist of the method:
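Buffy-coat PBMC at 5×105 c/ml in RPMI1640 with 2% FCS were pre-incubated 30 min with compound, then stimulated 18 h with LPS 1 mg/ml. Supernatant TNF-a measured by enzyme immunoassay; pIC50 from inhibition curves relative to LPS-stimulated and unstimulated wells.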
As for `COc1ccc(C(=O)Cc2c(Cl)cncc2Cl)c(OCCN2C(=O)c3ccccc3C2=O)c1OC` [Compound 185, 2-(2-{6-[2-(3,5-Dichloro-pyridin-4-yl)-acetyl]-2,3-dimethoxy-phenoxy}-ethyl)-isoindole-1,3-dione], the IC50 is under 1000 nM.

In turn, `COc1cccc(COc2c(C(=O)Cc3c(Cl)cncc3Cl)ccc(OC)c2OC)c1` [Compound 177, 2-(3,5-Dichloro-pyridin-4-yl)-1-[3,4-dimethoxy-2-(3-methoxy-benzyloxy)-phenyl]-ethanone] had an IC50 of under 1000 nM.

In the case of `COc1ccc(C(=O)Cc2c(Cl)cncc2Cl)c(OC(F)F)c1OC(F)F` [Compound 107, 1-(2,3-Bis-difluoromethoxy-4-methoxy-phenyl)-2-(3,5-dichloro-pyridin-4-yl)-ethanone], the half-inhibitory concentration (IC50) was under 1000 nM.

In turn, `CCOc1c(OC)ccc(C(=O)Cc2c(Cl)cncc2Cl)c1OCC` [Compound 104, 2-(3,5-Dichloro-pyridin-4-yl)-1-(2,3-diethoxy-4-methoxy-phenyl)-ethanone] had an IC50 of under 1000 nM.

On to `COc1ccc(C(=O)Cc2c(Cl)cncc2Cl)c(OCC(=O)NCCCc2ccccc2)c1OC` [Compound 243, 2-{6-[2-(3,5-Dichloro-pyridin-4-yl)-acetyl]-2,3-dimethoxy-phenoxy}-N-(3-phenyl-propyl)-acetamide], for which the IC50 is under 1000 nM.

`COc1ccc(C(=O)Cc2c(Cl)cncc2Cl)c(OCC(=O)NC2CCCC2)c1OC` [Compound 211, N-Cyclopentyl-2-{6-[2-(3,5-dichloro-pyridin-4-yl)-acetyl]-2,3-dimethoxy-phenoxy}-acetamide] showed an IC50 of under 1000 nM.

For `COc1ccc(C(=O)Cc2c(Cl)cncc2Cl)c(OCC(=O)NCc2cccc(C)c2)c1OC` [Compound 239, 2-{6-[2-(3,5-Dichloro-pyridin-4-yl)-acetyl]-2,3-dimethoxy-phenoxy}-N-(3-methyl-benzyl)-acetamide], the IC50 was under 1000 nM.

Turning to `COc1ccc(C(=O)Cc2c(Cl)cncc2Cl)c(OCCc2ccc(C#N)cc2)c1OC` [Compound 278, 4-(2-{6-[2-(3,5-Dichloro-pyridin-4-yl)-acetyl]-2,3-dimethoxy-phenoxy}-ethyl)-benzonitrile], the IC50 is under 1000 nM.

`COc1ccc(C(=O)Cc2c(Cl)cncc2Cl)c(OCC(=O)NCCOCCO)c1OC` [Compound 258, 2-{6-[2-(3,5-Dichloro-pyridin-4-yl)-acetyl]-2,3-dimethoxy-phenoxy}-N-[2-(2-hydroxy-ethoxy)-ethyl]-acetamide] had an IC50 of under 1000 nM.

In turn, `COc1ccc(C(=O)Cc2c(Cl)cncc2Cl)c(OCc2ccccc2C#N)c1OC` [Compound 147, 2-{6-[2-(3,5-Dichloro-pyridin-4-yl)-acetyl]-2,3-dimethoxy-phenoxymethyl}-benzonitrile] showed an IC50 of under 1000 nM.

Molecule `CCCCCOc1c(C(=O)Cc2c(Cl)cncc2Cl)ccc(OC)c1OC` [Compound 150, 2-(3,5-Dichloro-pyridin-4-yl)-1-(3,4-dimethoxy-2-pentyloxy-phenyl)-ethanone] gave an IC50 of under 1000 nM.

The molecule `COc1ccc(C(=O)Cc2c(Cl)cncc2Cl)c(OCc2ccccc2OC(F)F)c1OC` [Compound 168, 2-(3,5-Dichloro-pyridin-4-yl)-1-[2-(2-difluoromethoxy-benzyloxy)-3,4-dimethoxy-phenyl]-ethanone] showed an IC50 of under 1000 nM.

In the case of `COc1ccc(C(=O)Cc2c(Cl)cncc2Cl)c(OCC(=O)NCc2ccco2)c1OC` [Compound 228, 2-{6-[2-(3,5-Dichloro-pyridin-4-yl)-acetyl]-2,3-dimethoxy-phenoxy}-N-furan-2-ylmethyl-acetamide], the IC50 was under 1000 nM.

For `C=CCOc1c(OC)ccc(C(=O)Cc2c(Cl)cncc2Cl)c1OCCc1ccc(F)cc1` [Compound 269, 1-{3-Allyloxy-2-[2-(4-fluoro-phenyl)-ethoxy]-4-methoxy-phenyl}-2-(3,5-dichloro-pyridin-4-yl)-ethanone], the IC50 is under 1000 nM.

On to `COc1ccc(C(=O)Cc2c(Cl)cncc2Cl)c(OCC(=O)NCCC(C)C)c1OC` [Compound 212, 2-{6-[2-(3,5-Dichloro-pyridin-4-yl)-acetyl]-2,3-dimethoxy-phenoxy}-N-(3-methyl-butyl)-acetamide], for which the IC50 was under 1000 nM.

In turn, `COc1ccc(C(=O)Cc2c(Cl)cncc2Cl)c(OCc2nc3ccccc3o2)c1OC` [Compound 115, 1-[2-(Benzooxazol-2-ylmethoxy)-3,4-dimethoxy-phenyl]-2-(3,5-dichloro-pyridin-4-yl)-ethanone] showed an IC50 of under 1000 nM.

The molecule `COc1ccc(C(=O)Cc2c(Cl)cncc2Cl)c(OCC=C(C)C)c1OC` [Compound 111, 2-(3,5-Dichloro-pyridin-4-yl)-1-[3,4-dimethoxy-2-(3-methyl-but-2-enyloxy)-phenyl]-ethanone] gave an IC50 of under 1000 nM.

Consider `CCCNC(=O)COc1c(C(=O)Cc2c(Cl)cncc2Cl)ccc(OC)c1OC` [Compound 208, 2-{6-[2-(3,5-Dichloro-pyridin-4-yl)-acetyl]-2,3-dimethoxy-phenoxy}-N-propyl-acetamide], for which the 50% inhibitory concentration (IC50) was under 1000 nM.

Molecule `COc1ccc(C(=O)Cc2c(Cl)cncc2Cl)c(OCC(C)c2ccccc2)c1OC` (stereo not drawn) [Compound 284, 2-(3,5-Dichloro-pyridin-4-yl)-1-[3,4-dimethoxy-2-(2-phenyl-propoxy)-phenyl]-ethanone] showed an IC50 of under 1000 nM.

With `COc1ccc(C(=O)Cc2c(Cl)cncc2Cl)c(OCCO)c1OC` [Compound 155, 2-(3,5-Dichloro-pyridin-4-yl)-1-[2-(2-hydroxy-ethoxy)-3,4-dimethoxy-phenyl]-ethanone], the IC50 was under 1000 nM.

`COCCNC(=O)COc1c(C(=O)Cc2c(Cl)cncc2Cl)ccc(OC)c1OC` [Compound 223, 2-{6-(2-(3,5-Dichloro-pyridin-4-yl)-acetyl)-2,3-dimethoxy-phenoxy}-N-(2-methoxy-ethyl)-acetamide] gave an IC50 of under 1000 nM.

`COc1ccc(C(=O)Cc2c(Cl)cncc2Cl)c(OCc2c(F)cccc2C(F)(F)F)c1OC` [Compound 170, 2-(3,5-Dichloro-pyridin-4-yl)-1-[2-(2-fluoro-6-trifluoromethyl-benzyloxy)-3,4-dimethoxy-phenyl]-ethanone] had an IC50 of under 1000 nM.

In the case of `COc1ccc(C(=O)Cc2c(Cl)cncc2Cl)c(OCC(=O)NCc2cccs2)c1OC` [Compound 254, 2-{6-[2-(3,5-Dichloro-pyridin-4-yl)-acetyl]-2,3-dimethoxy-phenoxy}-N-thiophen-2-ylmethyl-acetamide], the IC50 is under 1000 nM.

In turn, `COc1ccc(C(=O)Cc2c(Cl)cncc2Cl)c(OCc2cc(C)on2)c1OC` [Compound 108, 2-(3,5-Dichloro-pyridin-4-yl)-1-[3,4-dimethoxy-2-(5-methyl-isoxazol-3-ylmethoxy)-phenyl]-ethanone] had an IC50 of under 1000 nM.

Take `C=CCOc1c(OC)ccc(C(=O)Cc2c(Cl)cncc2Cl)c1OCC=C` [Compound 106, 1-(2,3-Bis-allyloxy-4-methoxy-phenyl)-2-(3,5-dichloro-pyridin-4-yl)-ethanone]: the IC50 is under 1000 nM.

On to `CCOC(=O)COc1c(C(=O)Cc2c(Cl)cncc2Cl)ccc(OC)c1OC` [Compound 119, {6-[2-(3,5-Dichloro-pyridin-4-yl)-acetyl]-2,3-dimethoxy-phenoxy}-acetic acid ethyl ester], for which the IC50 was under 1000 nM.

`COc1ccc(C(=O)Cc2c(Cl)cncc2Cl)c(OCCc2ccccn2)c1OC` [Compound 279, 2-(3,5-Dichloro-pyridin-4-yl)-1-[3,4-dimethoxy-2-(2-pyridin-2-yl-ethoxy)-phenyl]-ethanone]: the IC50 was under 1000 nM.

As to `COc1ccc(C(=O)Cc2c(Cl)cncc2Cl)c(OCC(=O)NCCc2ccccn2)c1OC` [Compound 236, 2-{6-[2-(3,5-Dichloro-pyridin-4-yl)-acetyl]-2,3-dimethoxy-phenoxy}-N-(2-pyridin-2-yl-ethyl)-acetamide], the IC50 was under 1000 nM.

`COc1ccc(C(=O)Cc2c(Cl)cncc2Cl)c(OCCc2ccccc2F)c1OC` [Compound 130, 2-(3,5-Dichloro-pyridin-4-yl)-1-(2-[2-(2-fluoro-phenyl)-ethoxy)-3,4-dimethoxy-phenyl]-ethanone] had an IC50 of under 1000 nM.

`COc1ccc(C(=O)Cc2c(Cl)cncc2Cl)c(OCCOc2ccc(Cl)cc2)c1OC` [Compound 153, 1-{2-[2-(4-Chloro-phenoxy)-ethoxy]-3,4-dimethoxy-phenyl}-2-(3,5-dichloro-pyridin-4-yl)-ethanone] showed an IC50 of under 1000 nM.

`COc1ccc(C(=O)Cc2c(Cl)cncc2Cl)c(OCC(=O)NCCc2ccccc2)c1OC` [Compound 241, 2-{6-[2-(3,5-Dichloro-pyridin-4-yl)-acetyl]-2,3-dimethoxy-phenoxy}-N-phenethyl-acetamide] gave an IC50 of under 1000 nM.

Molecule `COc1ccc(C(=O)Cc2c(Cl)cncc2Cl)c(OCC(=O)N2CCOCC2)c1OC` [Compound 204, 2-(3,5-Dichloro-pyridin-4-yl)-1-[3,4-dimethoxy-2-(2-morpholin-4-yl-2-oxo-ethoxy)-phenyl]-ethanone] showed an IC50 of under 1000 nM.

`COc1ccc(C(=O)Cc2c(Cl)cncc2Cl)c(OCC(=O)N[C@@H](C)c2ccccc2)c1OC` [Compound 226, (S)-2-(6-[2-(3,5-Dichloro-pyridin-4-yl)-acetyl]-2,3-dimethoxy-phenoxy)-N-(1-phenyl-ethyl)-acetamide] gave an IC50 of under 1000 nM.

Turning to `COc1ccc(C(=O)Cc2c(Cl)cncc2Cl)c(OCc2csc(C)n2)c1OC` [Compound 116, 2-(3,5-Dichloro-pyridin-4-yl)-1-[3,4-dimethoxy-2-(2-methyl-thiazol-4-ylmethoxy)-phenyl]-ethanone], the IC50 is under 1000 nM.

The molecule `COc1ccc(C(=O)Cc2c(Cl)cncc2Cl)c(OCC(=O)NCc2ccc(C)cc2)c1OC` [Compound 240, 2-{6-[2-(3,5-Dichloro-pyridin-4-yl)-acetyl]-2,3-dimethoxy-phenoxy}-N-(4-methyl-benzyl)-acetamide] showed an IC50 of under 1000 nM.

Turning to `COc1ccc(C(=O)Cc2c(Cl)cncc2Cl)c(OCC(=O)c2ccc3ccccc3c2)c1OC` [Compound 157, 2-(3,5-Dichloro-pyridin-4-yl)-1-[3,4-dimethoxy-2-(2-naphthalen-2-yl-2-oxo-ethoxy)-phenyl]-ethanone], the IC50 was under 1000 nM.
